Laboratory results from PubChem BioAssay (NCI).
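Step 1: Grow cells in 96-well plates. Step 2: Expose to compound for 48 hours at 5 concentrations. Step 3: Interpolate endpoints linearly; if unreached, use highest concentration. GI50 marks 50% less growth. The concentration for full growth arrest is given as TGI.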

Key:
Experiment in all cases: DTP human tumour cell line panel, 48 h
SNB-75 CNS = test system: SNB-75 CNS
DU-145 prostate = test system: DU-145 prostate
IGROV1 ovarian = test system: IGROV1 ovarian
M14 melanoma = test system: M14 melanoma
MDA-MB-435 = test system: MDA-MB-435
MALME-3M melanoma = test system: MALME-3M melanoma
SF-539 CNS = test system: SF-539 CNS
HOP-92 NSCLC = test system: HOP-92 NSCLC
SN12C renal = test system: SN12C renal
SF-268 CNS = test system: SF-268 CNS
HCC-2998 colon = test system: HCC-2998 colon
OVCAR-4 ovarian = test system: OVCAR-4 ovarian
UACC-257 melanoma = test system: UACC-257 melanoma
U251 CNS = test system: U251 CNS
NCI-H460 lung = test system: NCI-H460 lung
HCT-15 colon = test system: HCT-15 colon
OVCAR-5 ovarian = test system: OVCAR-5 ovarian
KM12 colon = test system: KM12 colon
NCI-H226 lung = test system: NCI-H226 lung
RXF 393 renal = test system: RXF 393 renal
PC-3 prostate = test system: PC-3 prostate
NCI-H522 lung = test system: NCI-H522 lung
BT-549 breast = test system: BT-549 breast
RPMI-8226 leukemia = test system: RPMI-8226 leukemia
SR leukemia = test system: SR leukemia
MOLT-4 leukemia = test system: MOLT-4 leukemia
SNB-19 CNS = test system: SNB-19 CNS
HT29 colon = test system: HT29 colon
LOX IMVI melanoma = test system: LOX IMVI melanoma
HL-60(TB) leukemia = test system: HL-60(TB) leukemia
COLO 205 colon = test system: COLO 205 colon
CCRF-CEM leukemia = test system: CCRF-CEM leukemia
SK-MEL-28 melanoma = test system: SK-MEL-28 melanoma
OVCAR-8 ovarian = test system: OVCAR-8 ovarian
SK-OV-3 ovarian = test system: SK-OV-3 ovarian
NCI-H23 lung = test system: NCI-H23 lung
T-47D breast = test system: T-47D breast
ACHN renal = test system: ACHN renal
MDA-MB-231 breast = test system: MDA-MB-231 breast
A498 renal = test system: A498 renal
SF-295 CNS = test system: SF-295 CNS
HCT-116 colon = test system: HCT-116 colon
TK-10 renal = test system: TK-10 renal
HS 578T breast = test system: HS 578T breast
786-0 renal = test system: 786-0 renal
EKVX NSCLC = test system: EKVX NSCLC
A549 NSCLC = test system: A549 NSCLC
K-562 leukemia = test system: K-562 leukemia
SW-620 colon = test system: SW-620 colon
SK-MEL-2 melanoma = test system: SK-MEL-2 melanoma
CAKI-1 renal = test system: CAKI-1 renal
NCI/ADR-RES ovarian = test system: NCI/ADR-RES ovarian

## COc1ncnn2ccc(-c3cnc4nc(C)n(Cc5nnc(C(C)F)o5)c4c3)c12 (stereo unspecified)
SNB-75 CNS
  GI50: 0.191 µM
  TGI: 1.75 µM
DU-145 prostate
  GI50: 0.288 µM
  TGI: > 100 µM
IGROV1 ovarian
  GI50: 0.235 µM
  TGI: > 64.3 µM
M14 melanoma
  GI50: 0.24 µM
  TGI: > 40.5 µM
MDA-MB-435
  GI50: 0.223 µM
  TGI: > 100 µM
MALME-3M melanoma
  GI50: 0.264 µM
  TGI: 0.75 µM
SF-539 CNS
  GI50: 0.218 µM
  TGI: 0.674 µM
HOP-92 NSCLC
  GI50: 0.204 µM
  TGI: 2 µM
SN12C renal
  GI50: 0.255 µM
  TGI: > 58.1 µM
SF-268 CNS
  GI50: 0.526 µM
  TGI: > 80.5 µM
HCC-2998 colon
  GI50: 0.308 µM
  TGI: 2.71 µM
OVCAR-4 ovarian
  GI50: 0.278 µM
  TGI: 0.995 µM
UACC-257 melanoma
  GI50: 0.265 µM
  TGI: > 100 µM
U251 CNS
  GI50: 0.249 µM
  TGI: > 100 µM
NCI-H460 lung
  GI50: 0.242 µM
  TGI: > 100 µM
HCT-15 colon
  GI50: 0.199 µM
OVCAR-5 ovarian
  GI50: 0.343 µM
KM12 colon
  GI50: 0.116 µM
  TGI: > 100 µM
NCI-H226 lung
  GI50: 0.156 µM
  TGI: 0.949 µM
RXF 393 renal
  GI50: 0.247 µM
  TGI: 0.665 µM
PC-3 prostate
  GI50: 0.281 µM
  TGI: > 100 µM
NCI-H522 lung
  GI50: 0.0859 µM
  TGI: 0.363 µM
BT-549 breast
  GI50: 0.0585 µM
  TGI: 1.61 µM
RPMI-8226 leukemia
  GI50: 0.201 µM
  TGI: > 45.6 µM
SR leukemia
  GI50: 0.156 µM
  TGI: 16 µM
MOLT-4 leukemia
  GI50: 0.231 µM
  TGI: > 20.8 µM
SNB-19 CNS
  GI50: 0.198 µM
  TGI: > 100 µM
HT29 colon
  GI50: 0.253 µM
  TGI: 0.631 µM
LOX IMVI melanoma
  GI50: 0.144 µM
  TGI: 0.619 µM
HL-60(TB) leukemia
  GI50: 0.367 µM
COLO 205 colon
  GI50: 0.11 µM
  TGI: 0.468 µM
CCRF-CEM leukemia
  GI50: 0.11 µM
  TGI: > 74.6 µM
SK-MEL-28 melanoma
  GI50: 0.298 µM
  TGI: 13.8 µM
OVCAR-8 ovarian
  GI50: 0.245 µM
  TGI: > 100 µM
SK-OV-3 ovarian
  GI50: 0.0716 µM
  TGI: > 100 µM
NCI-H23 lung
  GI50: 0.109 µM
  TGI: 0.597 µM
T-47D breast
  GI50: 0.0853 µM
  TGI: > 100 µM
ACHN renal
  GI50: 0.24 µM
  TGI: > 100 µM
MDA-MB-231 breast
  GI50: 0.278 µM
  TGI: 27 µM
A498 renal
  GI50: 0.163 µM
  TGI: 0.62 µM
SF-295 CNS
  GI50: 0.326 µM
  TGI: 8.04 µM
HCT-116 colon
  GI50: 0.041 µM
  TGI: > 100 µM
TK-10 renal
  GI50: 0.367 µM
  TGI: > 100 µM
HS 578T breast
  GI50: 0.265 µM
  TGI: 7.21 µM
786-0 renal
  GI50: 0.273 µM
  TGI: > 100 µM
EKVX NSCLC
  GI50: 0.272 µM
  TGI: > 36.4 µM
A549 NSCLC
  GI50: 0.136 µM
  TGI: > 100 µM
K-562 leukemia
  GI50: 0.163 µM
  TGI: > 100 µM
SW-620 colon
  GI50: 0.0511 µM
  TGI: > 100 µM
SK-MEL-2 melanoma
  GI50: 0.0748 µM
  TGI: 0.236 µM
CAKI-1 renal
  GI50: 0.0613 µM
  TGI: > 100 µM
NCI/ADR-RES ovarian
  GI50: 0.409 µM
  TGI: > 29.2 µM
